Data taken from publication PMC11154920 (ACS Omega, 2024).

How the values were obtained:
[1] = test system: Cytochrome P450 2D6 (CYP2D6); conditions: cited from earlier work
[2] = test system: cytochrome P450 3A4 (CYP3A4); conditions: cited from earlier work
[3] = Stability of DEM and DEX in rat plasma; format: physicochemical
[4] = cited from earlier work
CYP3A4 = conditions: in vitro; cited from earlier work
[5] = autosampler stability (64 h and 3 min), HQC
[6] = autosampler stability (64 h and 3 min), LQC
[7] = benchtop stability (19 h and 28 min), HQC, rat plasma
[8] = benchtop stability (19 h and 28 min), LQC, rat plasma
[9] = freeze thaw stability (five cycles), HQC
[10] = freeze thaw stability (five cycles), HQC: nominal DEM 302.52, DEX 156.76 ng/mL
[11] = freeze thaw stability (five cycles), LQC
[12] = freeze thaw stability (five cycles), LQC: nominal DEM 0.58, DEX 0.30 ng/mL
[13] = long-term stability (49 days), HQC
[14] = long-term stability (49 days), LQC
[15] = long-term stability (49 days), −70 °C, HQC: nominal DEM 302.52, DEX 156.76 ng/mL
[16] = long-term stability (49 days), −70 °C, LQC: nominal DEM 0.58, DEX 0.30 ng/mL
[17] = processed sample stability (28 h and 21 min), HQC
[18] = processed sample stability (28 h and 21 min), LQC
[19] = wet extract stability (42 h and 12 min), HQC
[20] = wet extract stability (42 h and 12 min), LQC
[21] = wet extract stability (42 h and 12 min), LQC: nominal DEM 0.58, DEX 0.30 ng/mL

SMILES	% difference [3, 5]	% difference [3, 6]	% difference [3, 7]	% difference [3, 8] [%]	% difference [3, 9]	calculated conc. [3, 10] [ng/mL]	% difference [3, 11] [%]	calculated conc. [3, 12] [ng/mL]	% difference [3, 13]	% difference [3, 14] [%]	calculated conc. [3, 15] [ng/mL]	calculated conc. [3, 16] [ng/mL]	% difference [3, 17]	% difference [3, 18]	% difference [3, 19]	% difference [3, 20] [%]	calculated conc. [3, 21] [ng/mL]	other results
COc1ccc2c(c1)[C@]13CCCC[C@@H]1[C@H](C2)N(C)CC3 [DEM, Dextromethorphan]	2.32%	3.51%	–0.36%	5.29	–2.53%	293.62 ± 16.24	1.72	0.57 ± 0.03	–0.54%	3.51	299.62 ± 9.41	0.58 ± 0.03	2.35%	–0.06%	–0.83%	8.86	0.61 ± 0.05	share of metabolism of DEM to DEX by CYP2D6 [1]: 80%; share of metabolism of DEM to 3-methoxymorphinan by CYP3A4 [2]: 90%
CN1CC[C@@]23CCCC[C@@H]2[C@@H]1Cc1ccc(O)cc13 [DEX, dextrorphan]	–3.41%	–3.45%	–0.70%	0.00	0.66%	156.02 ± 1.22	3.45	0.30 ± 0.02	0.32%	3.45	155.49 ± 7.51	0.30 ± 0.02	–1.99%	3.45%	–0.69%	6.90	0.31 ± 0.02	fraction rapidly glucuronidated [4]: 98%
COc1cc2c(cc1O)CC[n+]1cc3c(OC)c(OC)ccc3cc1-2 [M38, jatrorrhizine]																		inhibition of CYP3A4 (CYP3A4): reported to inhibit CYP3A4
